Laboratory results reported in ChEMBL document CHEMBL1146775 (2004).
Activity calls are given as the source filed them.

target: Muscarinic acetylcholine receptor M3 (Cavia porcellus) (UniProt Q8VH26); test: not given; conditions: Ileum
Sequence (Q8VH26 1-587): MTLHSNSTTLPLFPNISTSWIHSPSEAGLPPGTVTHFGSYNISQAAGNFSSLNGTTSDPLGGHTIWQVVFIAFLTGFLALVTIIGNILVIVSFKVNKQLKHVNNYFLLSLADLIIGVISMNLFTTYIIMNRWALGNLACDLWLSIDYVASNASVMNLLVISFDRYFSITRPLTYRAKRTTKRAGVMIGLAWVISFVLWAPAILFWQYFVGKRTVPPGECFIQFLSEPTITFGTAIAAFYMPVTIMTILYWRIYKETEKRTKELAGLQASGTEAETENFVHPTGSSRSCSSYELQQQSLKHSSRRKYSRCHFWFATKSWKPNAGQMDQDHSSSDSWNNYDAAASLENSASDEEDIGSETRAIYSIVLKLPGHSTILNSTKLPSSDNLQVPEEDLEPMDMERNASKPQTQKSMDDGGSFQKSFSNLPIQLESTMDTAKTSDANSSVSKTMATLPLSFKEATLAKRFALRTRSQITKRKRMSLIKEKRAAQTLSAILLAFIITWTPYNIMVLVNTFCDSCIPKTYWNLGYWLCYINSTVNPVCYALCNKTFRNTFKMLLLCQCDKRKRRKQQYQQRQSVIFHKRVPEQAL

Compound | Contraction
CN1CCN(C(C#N)c2ccco2)CC1 (stereo not given) | inactive
CN1C2CC=C(C#N)C1CC2 (stereo not given) | inactive
Cc1cccc(C(C#N)N2CCN(C)CC2)c1 (stereo not given) | inactive
CCOP(=O)(OCC)C(c1ccc(O)c(OC)c1[N+](=O)[O-])N1CCOCC1 (stereo not given) | inactive
N#CC(c1cccs1)N1CCOCC1 (stereo not given) | inactive
CCOP(=O)(OCC)C(c1ccc(O)cc1)N1CCN(c2ccccn2)CC1 (stereo not given) | inactive
N#CCCN1CCOCC1 | inactive
CN1CCN(CCC#N)CC1 | inactive
CN1CCN(CCC(N)=O)CC1 | inactive
N#CC(c1cccc(F)c1)N1CCOCC1 (stereo not given) | inactive
CN1CCN(C(C#N)c2cccs2)CC1 (stereo not given) | inactive
CN1CCN(C(C#N)c2c(F)cccc2Cl)CC1 (stereo not given) | inactive
COc1cc(C(C#N)N2CCOCC2)cc(OC)c1OC (stereo not given) | inactive
COC(=O)CCCN1CCOCC1 | inactive
N#CCN1CCCCC1 | inactive
CCN(CC)CCC(=O)OC | inactive
N#CC(c1ccc2c(c1)OCO2)N1CCOCC1 (stereo not given) | inactive
N#CC(c1ccccc1Cl)N1CCOCC1 (stereo not given) | inactive
N#CCCN1CCCCC1 | inactive
CN1CCN(C(C#N)c2ccccc2F)CC1 (stereo not given) | inactive
N#CC(c1ccco1)N1CCOCC1 (stereo not given) | inactive
Cc1ccc(C(C#N)N2CCN(C)CC2)cc1 (stereo not given) | inactive
CN1CCN(C(C#N)c2ccccc2Cl)CC1 (stereo not given) | inactive
N#CC1CN(Cc2ccccc2)CCN1Cc1ccccc1 (stereo not given) | inactive
COC(=O)CCN1CCCCC1 | inactive

Compound | Contraction
N#CC(c1ccccc1F)N1CCOCC1 (stereo not given) | inactive
CNC(=O)CCN1CCOCC1 | inactive
CCOP(=O)(OCC)C(c1cc([N+](=O)[O-])ccc1O)N1CCOCC1 (stereo not given) | inactive
CN1CCN(C(C#N)c2ccc3c(c2)OCO3)CC1 (stereo not given) | inactive
C#CCN1CCOCC1 | inactive
COc1cc(C(C#N)N2CCN(C)CC2)cc(OC)c1OC (stereo not given) | inactive
COC(=O)C1CC2C(=O)C=CC1N2Cc1ccccc1 (stereo not given) | inactive
COC(=O)C1CN(Cc2ccccc2)CCN1Cc1ccccc1 (stereo not given) | inactive
CCOP(=O)(OCC)C(c1cc(OC)c(O)c(OC)c1)N1CCOCC1 (stereo not given) | inactive
Cc1ccccc1C(C#N)N1CCN(C)CC1 (stereo not given) | inactive
O/N=C1\CN2CCC1CC2 | inactive
CCOP(=O)(OCC)C(c1ccc(O)cc1)N1CCN(C)CC1 (stereo not given) | inactive
NC(=O)CCN1CCOCC1 | inactive
COC(=O)[C@@H]1C[C@@H](O)CN1 | inactive
CN1CCN(C(C#N)c2ccc(F)cc2)CC1 (stereo not given) | inactive
O=C(CN1CCOCC1)Nc1c(Cl)cccc1Cl | inactive
N#CC(NCc1ccccc1)c1ccc2c(c1)OCO2 (stereo not given) | inactive
CCOP(=O)(OCC)C(c1cc(Cl)cc(Cl)c1O)N1CCN(c2ccccn2)CC1 (stereo not given) | inactive
COC(=O)CCCCN1CCOCC1 | inactive
CCOP(=O)(OCC)C(c1ccc(O)cc1)N1CCOCC1 (stereo not given) | inactive
CN1CCN(C(C#N)c2cc3c(cc2Cl)OCO3)CC1 (stereo not given) | inactive
N#CCN1CCOCC1 | inactive
CCOC(=O)CN1CCOCC1 | inactive
Cc1ccc(C(C#N)N2CCOCC2)cc1 (stereo not given) | inactive
CN1CCN(CC(=O)Nc2c(Cl)cccc2Cl)CC1 | inactive

Compound | Contraction
CCOP(=O)(OCC)C(c1cc(OC)c(O)c(OC)c1)N1CCN(C)CC1 (stereo not given) | inactive
N#CC(c1ccc(F)cc1)N1CCOCC1 (stereo not given) | inactive
COC(=O)CCN1CCN(C)CC1 | inactive
CN1C2CC=C(C(N)=O)C1CC2 (stereo not given) | inactive
CCOP(=O)(OCC)C(c1ccc(O)c(OC)c1[N+](=O)[O-])N1CCN(C)CC1 (stereo not given) | inactive
C#CCN1CCN(C)CC1 | inactive
N#CC(NCc1ccccc1)c1ccco1 (stereo not given) | inactive
CN1CCN(Cc2nn[nH]n2)CC1 | inactive
O=C(CCN1CCOCC1)c1ccc([N+](=O)[O-])cc1 | inactive
CN1CCN(CC#N)CC1 | inactive
CCOP(=O)(OCC)C(c1cc(Br)cc(Br)c1O)N1CCN(c2ccccn2)CC1 (stereo not given) | inactive
CCOP(=O)(OCC)C(c1cc([N+](=O)[O-])ccc1O)N1CCN(C)CC1 (stereo not given) | inactive
CN1CCN(C(C#N)c2ccc(Cl)c(F)c2)CC1 (stereo not given) | inactive
N#CC(c1c(F)cccc1Cl)N1CCOCC1 (stereo not given) | inactive
N#CC(c1ccc(Cl)c(F)c1)N1CCOCC1 (stereo not given) | inactive
CCOP(=O)(OCC)C(c1ccc(O)c(OC)c1)N1CCN(C)CC1 (stereo not given) | inactive
CCOP(=O)(OCC)C(c1ccc(O)c(OC)c1)N1CCOCC1 (stereo not given) | inactive
O=C1CN2CCC1CC2 | inactive
CN1CCN(C(C#N)c2cccc(F)c2)CC1 (stereo not given) | inactive
Cc1cccc(C(C#N)N2CCOCC2)c1 (stereo not given) | inactive
N#CC1(O)CN2CCC1CC2 (stereo not given) | inactive
Cc1ccccc1C(C#N)N1CCOCC1 (stereo not given) | inactive
N#CC1CC2C(=O)C=CC1N2Cc1ccccc1 (stereo not given) | inactive
CCOC(=O)CN1CCN(C)CC1 | inactive
CNC(=O)CCN1CCCCC1 | inactive

test system: not listed separately; test: Maximal rate of vascular endothelium-dependent relaxation at the concentration of 10E-5 M/L; conditions: Oryctolagus cuniculus

Compound | Relaxation [%]
COc1cc(C(C#N)N2CCN(C)CC2)cc(OC)c1OC (stereo not given) | > 50
CCOP(=O)(OCC)C(c1cc(Cl)cc(Cl)c1O)N1CCN(c2ccccn2)CC1 (stereo not given) | > 50

test system: not listed separately; test: Maximal rate of vascular endothelium-dependent relaxation at the concentration of 10E-5 M/L; 0-10%; conditions: Oryctolagus cuniculus

Compound | Relaxation [%]
CN1CCN(C(C#N)c2ccco2)CC1 (stereo not given) | 10
CN1C2CC=C(C#N)C1CC2 (stereo not given) | 10
Cc1cccc(C(C#N)N2CCN(C)CC2)c1 (stereo not given) | 10
CCOP(=O)(OCC)C(c1ccc(O)c(OC)c1[N+](=O)[O-])N1CCOCC1 (stereo not given) | 10
N#CC(c1cccs1)N1CCOCC1 (stereo not given) | 10
CCOP(=O)(OCC)C(c1ccc(O)cc1)N1CCN(c2ccccn2)CC1 (stereo not given) | 10
N#CC(c1ccco1)N1CCOCC1 (stereo not given) | 10
CN1CCN(C(C#N)c2ccccc2Cl)CC1 (stereo not given) | 10
COC(=O)CCN1CCCCC1 | 10
COC(=O)C1CC2C(=O)C=CC1N2Cc1ccccc1 (stereo not given) | 10
Cc1ccccc1C(C#N)N1CCN(C)CC1 (stereo not given) | 10
N#CC(NCc1ccccc1)c1ccc2c(c1)OCO2 (stereo not given) | 10
CCOP(=O)(OCC)C(c1ccc(O)cc1)N1CCOCC1 (stereo not given) | 10
CN1CCN(C(C#N)c2cc3c(cc2Cl)OCO3)CC1 (stereo not given) | 10
CCOC(=O)CN1CCOCC1 | 10
CN1CCN(CC(=O)Nc2c(Cl)cccc2Cl)CC1 | 10
CCOP(=O)(OCC)C(c1ccc(O)c(OC)c1[N+](=O)[O-])N1CCN(C)CC1 (stereo not given) | 10
N#CC(NCc1ccccc1)c1ccco1 (stereo not given) | 10
N#CC(c1c(F)cccc1Cl)N1CCOCC1 (stereo not given) | 10

test system: not listed separately; test: Maximal rate of vascular endothelium-dependent relaxation at the concentration of 10E-5 M/L; […]; conditions: Oryctolagus cuniculus

Compound | Relaxation [%]
CN1CCN(C(C#N)c2cccs2)CC1 (stereo not given) | 30
CN1CCN(C(C#N)c2c(F)cccc2Cl)CC1 (stereo not given) | 30
C=CCN1CCN(C)CC1 | 30
N#CC(c1ccc2c(c1)OCO2)N1CCOCC1 (stereo not given) | 30
Cc1ccc(C(C#N)N2CCN(C)CC2)cc1 (stereo not given) | 30
N#CC1CN(Cc2ccccc2)CCN1Cc1ccccc1 (stereo not given) | 30
N#CC(c1ccccc1F)N1CCOCC1 (stereo not given) | 30
CCOP(=O)(OCC)C(c1cc([N+](=O)[O-])ccc1O)N1CCOCC1 (stereo not given) | 30
CN1CCN(C(C#N)c2ccc3c(c2)OCO3)CC1 (stereo not given) | 30
COC(=O)C1CN(Cc2ccccc2)CCN1Cc1ccccc1 (stereo not given) | 30
CCOP(=O)(OCC)C(c1ccc(O)cc1)N1CCN(C)CC1 (stereo not given) | 30
COC(=O)[C@@H]1C[C@@H](O)CN1 | 30
O=C(CN1CCOCC1)Nc1c(Cl)cccc1Cl | 30
Cc1ccc(C(C#N)N2CCOCC2)cc1 (stereo not given) | 30
CCOP(=O)(OCC)C(c1cc(OC)c(O)c(OC)c1)N1CCN(C)CC1 (stereo not given) | 30
N#CC(c1ccc(F)cc1)N1CCOCC1 (stereo not given) | 30
CN1C2CC=C(C(N)=O)C1CC2 (stereo not given) | 30
C#CCN1CCN(C)CC1 | 30
CN1CCN(Cc2nn[nH]n2)CC1 | 30
O=C(CCN1CCOCC1)c1ccc([N+](=O)[O-])cc1 | 30
CCOP(=O)(OCC)C(c1cc(Br)cc(Br)c1O)N1CCN(c2ccccn2)CC1 (stereo not given) | 30
CCOP(=O)(OCC)C(c1cc([N+](=O)[O-])ccc1O)N1CCN(C)CC1 (stereo not given) | 30
CCOP(=O)(OCC)C(c1ccc(O)c(OC)c1)N1CCN(C)CC1 (stereo not given) | 30
CCOP(=O)(OCC)C(c1ccc(O)c(OC)c1)N1CCOCC1 (stereo not given) | 30
Cc1cccc(C(C#N)N2CCOCC2)c1 (stereo not given) | 30
Cc1ccccc1C(C#N)N1CCOCC1 (stereo not given) | 30
CCOC(=O)CN1CCN(C)CC1 | 30

test system: not listed separately; test: Maximal rate of vascular endothelium-dependent relaxation at the concentration of 10E-5 M/L; 30-50%; conditions: Oryctolagus cuniculus

Compound | Relaxation [%]
N#CC(c1cccc(F)c1)N1CCOCC1 (stereo not given) | 50
COc1cc(C(C#N)N2CCOCC2)cc(OC)c1OC (stereo not given) | 50
N#CC(c1ccccc1Cl)N1CCOCC1 (stereo not given) | 50
CN1CCN(C(C#N)c2ccccc2F)CC1 (stereo not given) | 50
CCOP(=O)(OCC)C(c1cc(OC)c(O)c(OC)c1)N1CCOCC1 (stereo not given) | 50
CN1CCN(C(C#N)c2ccc(F)cc2)CC1 (stereo not given) | 50
COC(=O)CCCCN1CCOCC1 | 50
N#CCN1CCOCC1 | 50
CN1CCN(CC#N)CC1 | 50
CN1CCN(C(C#N)c2cccc(F)c2)CC1 (stereo not given) | 50

test system: not listed separately; test: Maximal rate of vascular endothelium-dependent relaxation at the concentration of 10E-5 M/L; - = no activity; conditions: Oryctolagus cuniculus

Compound | Relaxation
N#CCCN1CCOCC1 | inactive
CN1CCN(CCC#N)CC1 | inactive
CN1CCN(CCC(N)=O)CC1 | inactive
COC(=O)CCCN1CCOCC1 | inactive
CCN(CC)CCC(=O)OC | inactive
N#CCCN1CCCCC1 | inactive
CNC(=O)CCN1CCOCC1 | inactive
C#CCN1CCOCC1 | inactive
O/N=C1\CN2CCC1CC2 | inactive
NC(=O)CCN1CCOCC1 | inactive
COC(=O)CCN1CCN(C)CC1 | inactive
CN1CCN(C(C#N)c2ccc(Cl)c(F)c2)CC1 (stereo not given) | inactive
N#CC(c1ccc(Cl)c(F)c1)N1CCOCC1 (stereo not given) | inactive
O=C1CN2CCC1CC2 | inactive
N#CC1(O)CN2CCC1CC2 (stereo not given) | inactive
N#CC1CC2C(=O)C=CC1N2Cc1ccccc1 (stereo not given) | inactive
CNC(=O)CCN1CCCCC1 | inactive
